Values quoted from earlier work, collected in patent US8247562B2, “Benzamide derivatives useful as histone deacetylase inhibitors” (Astrazeneca AB, priority 2002, dated 2012).

Legend:
[1] = tested on: tumours in mice; settings: Finnin et al., Nature, 401, 188-193 (1999)
[2] = tested on: rat fibroblasts; settings: Yoshida et al, Exper. Cell Res., 177, 122-131 (1988)

CC(/C=C/C(=O)NO)=C\[C@@H](C)C(=O)c1ccc(N(C)C)cc1 [Trichostatin A]
formation of tumours [1]: prevent the formation of tumours in mice | cell cycle arrest [2]: arrest of rat fibroblasts at the G1 and G2 phases of the cell cycle
